pEC50: −log10 of the molar value. *1 amine or outer side, *2 acyl side, *3 side chain or, on linkers, in order; H or OH if unused. Where a SMILES comes first, the peptide text is derived from it. Side-chain parts run from the residue outwards. [ ]: non-standard residue; d: D form. The star is where a group is joined. C20 diacid = O=C(O)CCCCCCCCCCCCCCCCCCC(=O)*; βAsp = O=C(O)[C@H](CC(=O)[*:2])N[*:1]; AEEA = NCCOCCOCC(=O)O; Aib = CC(C)(N)C(=O)O; Inp = O=C(O)C1CCNCC1

This passage reports EC50 results from US9409966B2, “Glucagon-like peptide-1 derivatives and their pharmaceutical use” (priority 2007, dated 2016).

The target of experiment [1] is human serum albumin (HSA) (Homo sapiens, UniProt P02768). Briefly: Albumin binding affinity, competition scintillation proximity assay (SPA).
Sequence of human serum albumin (HSA) (P02768 25-609): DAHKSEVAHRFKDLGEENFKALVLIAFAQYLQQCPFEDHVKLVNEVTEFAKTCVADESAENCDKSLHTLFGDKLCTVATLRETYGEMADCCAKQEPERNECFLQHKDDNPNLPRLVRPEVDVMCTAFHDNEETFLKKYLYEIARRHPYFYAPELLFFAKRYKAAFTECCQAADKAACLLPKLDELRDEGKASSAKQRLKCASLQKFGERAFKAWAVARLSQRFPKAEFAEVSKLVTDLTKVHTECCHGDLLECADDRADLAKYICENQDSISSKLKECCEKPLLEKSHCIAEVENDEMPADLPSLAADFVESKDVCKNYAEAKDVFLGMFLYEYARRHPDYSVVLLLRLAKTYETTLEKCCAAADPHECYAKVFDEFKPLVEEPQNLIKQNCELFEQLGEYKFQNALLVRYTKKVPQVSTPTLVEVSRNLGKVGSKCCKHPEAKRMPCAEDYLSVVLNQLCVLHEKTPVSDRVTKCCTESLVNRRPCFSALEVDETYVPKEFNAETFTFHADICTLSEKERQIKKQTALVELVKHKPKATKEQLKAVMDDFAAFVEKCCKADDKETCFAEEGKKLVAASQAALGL
Experimental: Streptavidin-SPA beads (GE Healthcare RPNQ0009) were incubated with biotinylated HSA for 5 hours. The beads were washed with buffer to remove unbound HSA. […] After 20 hours of gentle rocking at room temperature the plates were centrifuged and counted on a TopCounter.
A further experiment addresses T1, human GLP-1 receptor (Homo sapiens, UniProt P43220).
T1 construct: expressed in transfected cells; host or cells: BHK467-12A (tk-ts13) baby hamster kidney cells; purified plasma membranes
Briefly: Stimulation of cAMP formation in a cell line expressing the cloned human GLP-1 receptor. Conditions: cAMP production, purified plasma membranes from BHK467-12A (tk-ts13), AlphaScreen cAMP Assay Kit; read-out: Potency [EC50/nM]. Type of experiment: biochemical. In general terms: Cyclic AMP is a second messenger, typically raised through Gs and lowered through Gi signalling.

T1 sequence (P43220 24-463): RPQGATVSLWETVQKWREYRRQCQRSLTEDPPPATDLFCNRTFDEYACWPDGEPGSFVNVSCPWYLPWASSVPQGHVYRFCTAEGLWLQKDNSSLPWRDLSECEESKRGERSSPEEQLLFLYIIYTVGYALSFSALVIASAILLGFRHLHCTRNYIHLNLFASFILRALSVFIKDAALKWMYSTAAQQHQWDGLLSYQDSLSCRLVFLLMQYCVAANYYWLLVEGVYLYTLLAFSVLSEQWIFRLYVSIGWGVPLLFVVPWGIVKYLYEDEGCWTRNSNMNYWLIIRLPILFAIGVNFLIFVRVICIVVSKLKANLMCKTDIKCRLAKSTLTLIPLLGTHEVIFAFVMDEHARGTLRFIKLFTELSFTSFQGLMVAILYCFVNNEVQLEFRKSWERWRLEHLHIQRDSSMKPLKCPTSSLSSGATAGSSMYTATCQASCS

As usually defined, the pEC50 is the EC50 on a negative log10 scale, so that one unit is a factor of ten. High values mean a small EC50, low ones a large EC50. Regarding `CC[C@H](C)[C@H](NC(=O)[C@H](Cc1ccccc1)NC(=O)[C@H](CCC(=O)O)NC(=O)[C@H](CCCNC(=N)N)NC(=O)[C@H](C)NC(=O)[C@H](C)NC(=O)[C@H](CCC(N)=O)NC(=O)[C@H](CCC(=O)O)NC(=O)[C@H](CCC(=O)O)NC(=O)[C@H](CC(C)C)NC(=O)[C@H](Cc1ccc(O)cc1)NC(=O)[C@H](CO)NC(=O)[C@H](CO)NC(=O)[C@@H](NC(=O)[C@H](CC(=O)O)NC(=O)[C@H](CO)NC(=O)[C@@H](NC(=O)[C@H](Cc1ccccc1)NC(=O)[C@@H](NC(=O)CNC(=O)[C@H](CCC(=O)O)NC(=O)[C@H](C)NC(=O)CCc1c[nH]cn1)[C@@H](C)O)[C@@H](C)O)C(C)C)C(=O)N[C@@H](C)C(=O)N[C@@H](Cc1c[nH]c2ccccc12)C(=O)N[C@@H](CC(C)C)C(=O)N[C@H](C(=O)N[C@@H](CCCNC(=N)N)C(=O)NCC(=O)N[C@@H](CCCNC(=N)N)C(=O)N[C@@H](CCCCNC(=O)COCCOCCNC(=O)COCCOCCNC(=O)C[C@@H](NC(=O)C1CCN(C(=O)CCCCCCCCCCCCCCCCCCC(=O)O)CC1)C(=O)O)C(N)=O)C(C)C` [Example 1, N-epsilon37{2-[2-(2-{2-[2-((R)-3-carboxy-3-{[1-(19-carboxynonadecanoyl)piperidine-4-carbonyl]amino}propionylamino)ethoxy]ethoxy}acetylamino)ethoxy]ethoxy}acetyl [desaminoHis7,Glu22,Arg26,Arg34,Lys37]GLP-1(7-37)amide], the pEC50 in experiment [1] was 6.10 to 6.40. In addition, at human GLP-1 receptor, the EC50 came to 0.37 nM. In the same order, the values of `CC[C@H](C)[C@H](NC(=O)[C@H](Cc1ccccc1)NC(=O)[C@H](CCC(=O)O)NC(=O)[C@H](CCCNC(=N)N)NC(=O)[C@H](C)NC(=O)[C@H](C)NC(=O)[C@H](CCC(N)=O)NC(=O)[C@H](CCC(=O)O)NC(=O)[C@H](CCC(=O)O)NC(=O)[C@H](CC(C)C)NC(=O)[C@H](Cc1ccc(O)cc1)NC(=O)[C@H](CO)NC(=O)[C@H](CO)NC(=O)[C@@H](NC(=O)[C@H](CC(=O)O)NC(=O)[C@H](CO)NC(=O)[C@@H](NC(=O)[C@H](Cc1ccccc1)NC(=O)[C@@H](NC(=O)CNC(=O)[C@H](CCC(=O)O)NC(=O)C(C)(C)NC(=O)[C@@H](N)Cc1c[nH]cn1)[C@@H](C)O)[C@@H](C)O)C(C)C)C(=O)N[C@@H](C)C(=O)N[C@@H](Cc1c[nH]c2ccccc12)C(=O)N[C@@H](CC(C)C)C(=O)N[C@H](C(=O)N[C@@H](CCCNC(=N)N)C(=O)NCC(=O)N[C@@H](CCCNC(=N)N)C(=O)N[C@@H](CCCCNC(=O)COCCOCCNC(=O)COCCOCCNC(=O)C[C@H](NC(=O)C1CCN(C(=O)CCCCCCCCCCCCCCCCCCC(=O)O)CC1)C(=O)O)C(N)=O)C(C)C` [Example 2, N-epsilon37{2-[2-(2-{2-[2-((S)-3-carboxy-3-{[1-(19-carboxynonadecanoyl)piperidine-4-carbonyl]amino}propionylamino)ethoxy]ethoxy}acetylamino)ethoxy]ethoxy}acetyl [Aib8,Glu22,Arg26,Arg34,Lys37]GLP-1-(7-37)amide] are 6.40 to 6.70 and 0.2 nM.

As to `CC[C@H](C)[C@H](NC(=O)[C@H](Cc1ccccc1)NC(=O)[C@H](CCC(=O)O)NC(=O)[C@H](CCCNC(=N)N)NC(=O)[C@H](C)NC(=O)[C@H](C)NC(=O)[C@H](CCC(N)=O)NC(=O)[C@H](CCC(=O)O)NC(=O)[C@H](CCC(=O)O)NC(=O)[C@H](CC(C)C)NC(=O)[C@H](Cc1ccc(O)cc1)NC(=O)[C@H](CO)NC(=O)[C@H](CO)NC(=O)[C@@H](NC(=O)[C@H](CC(=O)O)NC(=O)[C@H](CO)NC(=O)[C@@H](NC(=O)[C@H](Cc1ccccc1)NC(=O)[C@@H](NC(=O)CNC(=O)[C@H](CCC(=O)O)NC(=O)C(C)(C)NC(=O)[C@@H](N)Cc1c[nH]cn1)[C@@H](C)O)[C@@H](C)O)C(C)C)C(=O)N[C@@H](C)C(=O)N[C@@H](CCCCNC(=O)COCCOCCNC(=O)COCCOCCNC(=O)C[C@H](NC(=O)C1CCN(C(=O)CCCCCCCCCCCCCCCCCCC(=O)O)CC1)C(=O)O)C(=O)N[C@@H](CC(C)C)C(=O)N[C@H](C(=O)N[C@@H](CCCCN)C(=O)NCC(=O)N[C@@H](CCCNC(=N)N)C(=O)NCC(=O)O)C(C)C` [Example 5, N-epsilon31{2-[2-(2-{2-[2-((S)-3-carboxy-3-{[1-(19-carboxynonadecanoyl)piperidine-4-carbonyl]amino}propionylamino)ethoxy]ethoxy}acetylamino)ethoxy]ethoxy}acetyl [Aib8,Glu22,Arg26,Lys31]GLP-1-(7-37)] (H-H[Aib]EGTFTSDVSSYLEEQAAREFIAK([AEEA-AEEA-βAsp-Inp-C20 diacid])LVKGRG-OH), the pEC50 in experiment [1] was 6.82 to 7.00. The EC50 on human GLP-1 receptor amounted to 0.2 nM.

Take `CCCCCCCCCCCCCCCCCC(=O)NCCOCCOCC(=O)NCCOCCOCC(=O)NCCOCCOCC(=O)NCCCC[C@H](NC(=O)[C@H](CCCNC(=N)N)NC(=O)CNC(=O)[C@H](CCCNC(=N)N)NC(=O)[C@@H](NC(=O)[C@H](CC(C)C)NC(=O)[C@H](Cc1c[nH]c2ccccc12)NC(=O)[C@H](C)NC(=O)[C@@H](NC(=O)[C@H](Cc1ccccc1)NC(=O)[C@H](CCC(=O)O)NC(=O)[C@H](CCCNC(=N)N)NC(=O)[C@H](C)NC(=O)[C@H](C)NC(=O)[C@H](CCC(N)=O)NC(=O)[C@H](CCC(=O)O)NC(=O)[C@H](CCC(=O)O)NC(=O)[C@H](CC(C)C)NC(=O)[C@H](Cc1ccc(O)cc1)NC(=O)[C@H](CO)NC(=O)[C@H](CO)NC(=O)[C@@H](NC(=O)[C@H](CC(=O)O)NC(=O)[C@H](CO)NC(=O)[C@@H](NC(=O)[C@H](Cc1ccccc1)NC(=O)[C@@H](NC(=O)CNC(=O)[C@H](CCC(=O)O)NC(=O)[C@H](C)NC(=O)CCc1c[nH]cn1)[C@@H](C)O)[C@@H](C)O)C(C)C)[C@@H](C)CC)C(C)C)C(N)=O` [Example 19, N-epsilon37-(2-(2-(2-(2-(2-(2-(2-(2-(2-(Octadecanoylamino)ethoxy)ethoxy)acetylamino)ethoxy)ethoxy)acetylamino)ethoxy)ethoxy)acetyl)[desaminoHis7,Glu22,Arg26,Arg34,Lys37] GLP-1 (7-37)amide]: the EC50 on human GLP-1 receptor is 0.05 nM. On the same count and under the same terms, under `CC[C@H](C)[C@H](NC(=O)[C@H](Cc1ccccc1)NC(=O)[C@H](CCC(=O)O)NC(=O)[C@H](CCCNC(=N)N)NC(=O)[C@H](C)NC(=O)[C@H](C)NC(=O)[C@H](CCC(N)=O)NC(=O)[C@H](CCC(=O)O)NC(=O)[C@H](CCC(=O)O)NC(=O)[C@H](CC(C)C)NC(=O)[C@H](Cc1ccc(O)cc1)NC(=O)[C@H](CO)NC(=O)[C@H](CO)NC(=O)[C@@H](NC(=O)[C@H](CC(=O)O)NC(=O)[C@H](CO)NC(=O)[C@@H](NC(=O)[C@H](Cc1ccccc1)NC(=O)[C@@H](NC(=O)CNC(=O)[C@H](CCC(=O)O)NC(=O)[C@H](C)NC(=O)CCc1c[nH]cn1)[C@@H](C)O)[C@@H](C)O)C(C)C)C(=O)N[C@@H](C)C(=O)N[C@@H](Cc1c[nH]c2ccccc12)C(=O)N[C@@H](CC(C)C)C(=O)N[C@H](C(=O)N[C@@H](CCCNC(=N)N)C(=O)NCC(=O)N[C@@H](CCCNC(=N)N)C(=O)N[C@@H](CCCCNC(=O)COCCOCCNC(=O)CC[C@H](NC(=O)CC[C@H](NC(=O)CCCCCCCCCCCNC(=O)CCCS(=O)(=O)NC(=O)CCCCCCCCCCCCCCCc1nnn(C(C)(C)C)n1)C(=O)O)C(=O)O)C(=O)O)C(C)C` [Example 26, N-epsilon37-{2-[2-(2-{(S)-4-[(S)-4-(12-{4-[16-(2-tert-Butyl-2H-tetrazol-5-yl)-hexadecanoylsulfamoyl]butyrylamino}dodecanoylamino)-4-carboxybutyrylamino]-4-carboxybutyrylamino}ethoxy)ethoxy]acetyl}[DesaminoHis7,Glu22,Arg26,Arg34,Lys37] GLP-1 (7-37)] stands 0.25 nM; under `CC[C@H](C)[C@H](NC(=O)[C@H](Cc1ccccc1)NC(=O)[C@H](CCC(=O)O)NC(=O)[C@H](CCCNC(=N)N)NC(=O)[C@H](C)NC(=O)[C@H](C)NC(=O)[C@H](CCC(N)=O)NC(=O)[C@H](CCC(=O)O)NC(=O)[C@H](CCC(=O)O)NC(=O)[C@H](CC(C)C)NC(=O)[C@H](Cc1ccc(O)cc1)NC(=O)[C@H](CO)NC(=O)[C@H](CO)NC(=O)[C@@H](NC(=O)[C@H](CC(=O)O)NC(=O)[C@H](CO)NC(=O)[C@@H](NC(=O)[C@H](Cc1ccccc1)NC(=O)[C@@H](NC(=O)CNC(=O)[C@H](CCC(=O)O)NC(=O)C(C)(C)NC(=O)[C@@H](N)Cc1c[nH]cn1)[C@@H](C)O)[C@@H](C)O)C(C)C)C(=O)N[C@@H](C)C(=O)N[C@@H](Cc1c[nH]c2ccccc12)C(=O)N[C@@H](CC(C)C)C(=O)N[C@H](C(=O)N[C@@H](CCCNC(=N)N)C(=O)NCC(=O)N[C@@H](CCCNC(=N)N)C(=O)N[C@@H](CCCCNC(=O)CC[C@H](NC(=O)COCCOCCNC(=O)COCCOCCNC(=O)CCCCCCCCCCCCCCCCC(=O)O)C(=O)O)C(=O)O)C(C)C` [Example 38, N-epsilon-37-[(S)-4-carboxy-4-(2-{2-[2-(2-{2-[2-(17-carboxyheptadecanoylamino)ethoxy]ethoxy}acetylamino)ethoxy]ethoxy}acetylamino)butyryl] [Aib8,Glu22,Arg26,34,Lys37] GLP-1 (7-37)], 0.07 nM.
